Experiments:
[1] = cited from earlier work; for chronic clopidogrel vs aspirin monotherapy: atherosclerosis, including MI within 35 days
[2] = Thorough QT study (QT/QTc interval, ECG); type: in vivo, human; conditions: for highest upper limit of 2-sided 90% CI for ΔΔQTcF: Day 1 and Day 4 postdose
[3] = AXIOMATIC-TKR Phase II trial; type: in vivo, human; conditions: 25 mg twice daily
Excerpt: […]. […] (Weitz, et al., Milvexian for the Prevention of Venous Thromboembolism, N. Engl. […].

[4] = Population pharmacokinetic analysis of AXIOMATIC-SSP PK data; type: in vivo, human; conditions: 25 mg BID oral
Factor XI = Factor XI clotting activity, AXIOMATIC-SSP; type: in vivo, human
Protocol: As used herein, “Factor XI Clotting Activity” is determined utilizing an aPTT-based 1-stage clotting time assay. Serial dilutions of normal pooled plasma are mixed with FXI-depleted plasma and the clotting times are measured according to standard aPTT protocol, to establish a reference range. Subject test plasma is treated in the same way and compared with the reference plasma.
In some embodiments, the Factor XI Clotting Activity is measured as follows: Factor XI (FXI) activity is measured using a modification of the activated partial thromboplastin time (aPTT) using Actin FS (Siemens Healthcare) on the Siemens BCS®XP analyzer. […]. The reference standard, at approximately 100%, is diluted by the BCS®XP analyzer in saline to generate pre-selected calibration levels of FXI. The calibration curve is plotted with FXI activity in percent (%) on the x-axis and clotting time in seconds on the y-axis. A log/lin regression curve fit is used. The samples to be tested are mixed with FXI deficient plasma (containing less than 1% FXI and at least 75% of all the other factors) to normalize all other factors. APTT reagent (Actin FS) is added and the mixture is incubated. Following incubation, calcium chloride is added to the mixture and the time to clot formation (measured optically) is compared to the time on the calibration curve. Samples are tested at the base dilution (1:10) prepared by the BCS®XP in saline. In other embodiments, formation of the fibrin clot is measured by mechanical methods (viscosity).
[…]. […] […].

[5] = Safety and tolerability of milvexian (thorough QT study / general); type: in vivo, human
Excerpt: All 66 (100.0%) participants enrolled in the study received at least one entire dose of study intervention.

[6] = AXIOMATIC-SSP treatment discontinuation / completion; conditions: 200 mg BID, primarily due to AEs
Excerpt: The study enrolled participants ≥40 years of age who had ischemic stroke or TIA. Ischemic stroke was defined as a neurological deficit attributable to a non-lacunar, acute brain infarction detected by neuroimaging and relevant to the clinical symptoms and National Institutes of Health Stroke Score (NIHSS)≤7 at the time of randomization. TIA was defined as acute onset neurological deficit attributable to focal ischemia of the brain by history or examination, with complete resolution of the deficit and no brain infarction on neuroimaging and ABCD score ≥6 or presence of motor symptoms. Evidence of relevant intracranial or cervical arterial atherosclerotic plaque, ulceration or thrombus in a feeding artery documented by imaging was required regardless of whether the index event was ischemic stroke or TIA, and all participants were required to have a Modified Rankin Score ≤3 before the index event. […] Following informed consent, participants received ASA 100 mg QD and a single loading dose of clopidogrel 300 mg if not already given as standard of care. […] A second MRI was performed on Day 90±6 days. All participants were required to remain on study treatment until the Day 90 MRI was performed up to Day 96.

Factor Xa = conditions: cited from earlier work
[7] = dose of 25 mg, 50 mg, or 100 mg
[8] = 25 mg BID, Day 21 anytime, N=233
[9] = 25 mg BID, Day 90 anytime, N=223
[10] = phase III, ACS patients, in combination with dual antiplatelet therapy

In the case of CC(=O)Oc1ccccc1C(=O)O [aspirin], the “chronic clopidogrel vs aspirin monotherapy” value [1] is listed as “comparable results” and the “risk and severity of recurrent MACE” value ([1]; pooled randomized trials vs control, secondary prevention of ACS or chronic CAD) is listed as “reduces the risk and severity of early and late recurrent MACE”.
For COC(=O)[C@H](c1ccccc1Cl)N1CCc2sccc2C1 [clopidogrel], the “chronic clopidogrel vs aspirin monotherapy” value [1] is listed as “comparable results”.
For C[C@@H]1CCC[C@H](n2cnc(-c3cc(Cl)ccc3-n3cc(Cl)nn3)cc2=O)c2cc(ccn2)-c2c(cnn2C(F)F)NC1=O [milvexian, (5R,9S)-9-(4-(5-chloro-2-(4-chloro-1H-1,2,3-triazol-1-yl)phenyl)-6-oxopyrimidin-1(6H)-yl)-2^1-(difluoromethyl)-5-methyl-2^1H-3-aza-1(4,2)-pyridina-2(5,4)-pyrazolacyclonaphan-4-one], the “upper limits of all 2-sided 90% CIs of time-matched differences vs placebo in changes from baseline in QTcF” value ([2]; 100 mg) was “below 10 ms”, the “upper limits of 90% CI for ΔΔQTcF at milvexian Tmax” value ([2]; 100 mg twice daily) was “below 10 ms” and the “upper bound of two-sided CI for largest ΔΔQTc (QTcF)” value ([2]; 100 mg twice daily as capsule) was “less than 10 milliseconds”. For the same compound, the “highest upper limit of 2-sided 90% CI for ΔΔQTcF” value ([2]; 100 mg) was 5.16 ms, the “upper limits of all 2-sided 90% CIs of time-matched differences vs placebo in changes from baseline in QTcF” value ([2]; 200 mg) was “below 10 ms” and the “upper limits of 90% CI for ΔΔQTcF at milvexian Tmax” value ([2]; 200 mg twice daily) was “below 10 ms”. For the same compound, the “upper bound of two-sided CI for largest ΔΔQTc (QTcF)” value ([2]; 200 mg twice daily as solution) was “less than 10 milliseconds”, the “highest upper limit of 2-sided 90% CI for ΔΔQTcF” value ([2]; 200 mg) was 4.57 ms and the “effect on QT interval (QTcF), ICH E14” value ([2]; 100 and 200 mg) was “no effect of clinical or regulatory concern on the QT interval”. The “effect on QT interval (study-specific and Bazett's correction), ICH E14” value ([2]; 100 and 200 mg) was “no effect of clinical or regulatory concern on the QT interval”, the QTc interval prolongation [2, 7] was “no clinically significant QTc interval prolongation” and the ΔΔQTc [2, 7] was “less than 10 msec”. The “evidence of QT/QTc interval prolongation, ICH E14” value ([2]; therapeutic (100 mg) and supratherapeutic (200 mg)) was “does not show evidence of QT/QTc interval prolongation of clinical or regulatory concern”, the “ECG abnormalities reported as TEAE” value ([2]; whole study) was “No ECG abnormalities were reported as TEAE” and the “HR, RR interval, PR interval, QRS width” value ([2]; whole study) was “No consistent or clinically relevant changes over time were observed in HR, RR interval, PR interval, or QRS width”. For the same compound, the “treatment-emergent QTcF or QTcB values >480 ms or changes >60 ms” value ([2]; whole study) was “No treatment-emergent actual values of QTcF or QTcB>480 ms or changes from baseline >60 ms were observed”, the “treatment-emergent actual values of QTc>480 ms” value ([2]; whole study) was “No treatment-emergent actual values of QTc>480 ms were observed” and the “treatment-emergent changes from baseline of QTcF or QTcP>60 ms” value ([2]; whole study) was “No treatment-emergent changes from baseline of QTcF or QTcP>60 ms were observed”. For the same compound, the “efficacy compared with enoxaparin” value [3] was “comparable efficacy to enoxaparin”, the “safety profile compared with enoxaparin” value [3] was “favorable safety profile” and the “steady state mean (std) Cmax” value [4] was 346 (129) ng/mL. For the same compound, the “steady state mean (std) AUC0-24” value ([4]; […]) was 7290 (2940) ng*h/mL, the “FXI Clotting Activity percent change from baseline, mean” value (Factor XI; 25 mg BID, Day 1 4 h, N=254) was −7.21% and the “FXI Clotting Activity percent change from baseline, median” value (Factor XI; 25 mg BID, Day 1 4 h, N=254) was −8.48%. The “FXI Clotting Activity value, median” value (Factor XI; 25 mg BID, Day 1 4 h, N=254) was 100.0%, the “FXI Clotting Activity percent change from baseline, mean” value (Factor XI; 25 mg BID, Day 1 12 h, N=241) was −6.89% and the “FXI Clotting Activity percent change from baseline, median” value (Factor XI; 25 mg BID, Day 1 12 h, N=241) was −7.63%. For the same compound, the “FXI Clotting Activity percent change from baseline, mean” value (Factor XI; 25 mg BID, Day 1 24 h, N=253) was −9.69%, the “FXI Clotting Activity percent change from baseline, median” value (Factor XI; 25 mg BID, Day 1 24 h, N=253) was −11.30% and the “FXI Clotting Activity percent change from baseline, mean” value (Factor XI; [8]) was −18.1%. For the same compound, the “FXI Clotting Activity percent change from baseline, median” value (Factor XI; [8]) was −19.10%, the “FXI Clotting Activity percent change from baseline, mean” value (Factor XI; [9]) was −17.7% and the “FXI Clotting Activity percent change from baseline, median” value (Factor XI; [9]) was −20.16%. The “dose-response of Factor XI clotting activity” value (Factor XI; milvexian treated groups) was “dose-dependent decreases in the Factor XI clotting activity”, the safety and tolerability ([5]; administration according to the disclosure) was “generally safe and well tolerated” and the mean vital signs ([5]; whole study) was “no consistent or clinically relevant changes over time in mean vital signs”. For the same compound, the “early treatment discontinuation rate” value [6] was 31.60%.
For COc1c(N2C[C@@H]3CCCN[C@@H]3C2)c(F)cc2c(=O)c(C(=O)O)cn(C3CC3)c12 [moxifloxacin, reference compound], the “participants with treatment-emergent change from baseline of QTcB>60 ms, number” value ([2]; following moxifloxacin) was “One”, the “participants with treatment-emergent change from baseline of QTcB>60 ms, percent” value ([2]; following moxifloxacin) was 1.7% and the “assay sensitivity (QTc, positive control)” value ([2]; single dose 400 mg moxifloxacin) was “Assay sensitivity for moxifloxacin was also demonstrated”.
In the case of O=C(NC[C@H]1CN(c2ccc(N3CCOCC3=O)cc2)C(=O)O1)c1ccc(Cl)s1 [rivaroxaban], the “risk of death from cardiovascular causes, myocardial infarction, and stroke” value (Factor Xa; [10]) is listed as “reduced the risk of death from cardiovascular causes, myocardial infarction, and stroke”, the “risk of major bleeding” value (Factor Xa; [10]) is listed as “increased the risk of major bleeding” and the bleeding risks (Factor Xa; post-ACS care) is listed as “increased bleeding risks”. The cardiovascular events (Factor Xa; post-ACS care) was “reduced cardiovascular events” and the thrombin generation (Factor Xa; post-ACS care) was “decreased thrombin generation”.
